According to patent publication US20050222136A1, “Active substance combination” (priority 2004, published 2005):
Where a name gives a salt, the structure may show the parent alone.

Assays:
Assay type in all cases: in vivo
male Swiss albino mice [1] = test: Writhing test in mice (phenylbenzoquinone-induced writhing reactions); details: for inhibition at 40 mg/kg / inhibition at 80 mg/kg / inhibition at 160 mg/kg / ED50: Mus musculus; for inhibition at 40 mg/kg / inhibition at 80 mg/kg / inhibition at 160 mg/kg / Writhing test % Activity: 60 minutes prior to phenylbenzoquinone i.p., inhibition of writhing reactions vs control; for ED50: po; for ED50 / Writhing test ED50: mice; for Writhing test ED50: p.o., in mg/kg
Protocol: Ia. Writhing Test in Mice
(§1) The Writhing test for the determination of the analgesic activity of the inventive active substance combination is carried out according to the method described in the publication of E. Siegmund et al., Proc. Soc. Exp. Biol. Med. 1957, 95, 729-731 using male Swiss albino mice (20-25 g body weight, obtained from Harlan, S. Feliu de Codinas, Spain). The respective part of the description is hereby incorporated by reference and forms part of the respective disclosure.
The Writhing reactions are induced by intraperitoneal injection of phenylbenzoquinone (25 ml/kg in a 0.02% (volume/volume) ethanolic solution in a 5% (volume/volume) solution in destillated water with Evan's blue in an amount of 0.1% weight/volume) and the writhing reactions are counted during a 15 minute period following the injection. The substances to be tested are orally administered 60 minutes prior to the injection of the phenylbenzoquinone solution. The percentage of the inhibition of the writhing reactions is calculated on the basis of the control group as basis for 0% inhibition.

male Wistar albino rats = test: Determination of ulcerogenic effect in rats; details: stomach three hours after administration
Protocol: II. Determination of Ulcerogenic Effect in Rats The ulcerogenic effect of the inventive active substance combination is determined in male Wistar albino rats (body weight 160-200 g, obtained from Harlan, S. Feliu de Codinas, Spain) according to the method described in the publication of J. L. Wallace et al., […]. 1990, 259, […]-[…]. The respective part of the description is incorporated by reference and forms part of the present disclosure. Prior to the tests the rats are kept in cages for 24 hours with free access to drinking water. Afterwards the substances to be tested are orally administered to the rats in form of a 5% by weight suspension in arabic gum. Three hours after the administration of the respective substances to be tested the rats are sacrificed by inhalation of carbon dioxide, the stomachs are removed, opened along the great curvature, washed with saline solution and extended over a suitable frame. By the use of a Projectt 1.2 image analyzer (Projectt, Barcelona, Spain) the ulcerated areas of the stomachs are determined and their size expressed in mm^2.

male Swiss albino mice [2] = test: Formaline test in mice; details: for inhibition at 40 mg/kg: Mus musculus, ip
Protocol: Ib. Formaline Test in Mice
as §1, with “Formaline” for “Writhing”, “T. Ohkubo” for “E. Siegmund”, “J. Pharmacol.” for “Proc. Soc.”, “Ther. 1990, 252, 1261-1268” for “Biol. Med. 1957, 95, 729-731”
The substances to be tested are intraperitoneally administered to the mice in 5% by weight solution of arabic gum in destined water as vehicle. 15 minutes later 20 μl of a 5% by weight solution of formaline in saline solution is injected into the back of the right paw of the animals. The total time in seconds of licking and/or biting the injected paw is registered in the acute phase, i.e. 0-5 minutes (phase I), and in the chronic phase, i.e. 15-30 (phase II), minutes after injection of the formaline. The percentage of inhibition is calculated based on the medium values of the acute and chronic phases of the control group as 0% inhibition of the primary and secondary response.

[3] = 40 mg/kg i.p., acute phase 0-5 minutes after formaline, inhibition of licking/biting time, read-out: Formaline test % Activity Phase I
[4] = read-out: Formaline test % Activity Phase II

SMILES	inhibition at 40 mg/kg (male Swiss albino mice [1]; 40 mg/kg p.o.) [%]	inhibition at 80 mg/kg (male Swiss albino mice [1]; 80 mg/kg p.o.) [%]	inhibition at 160 mg/kg (male Swiss albino mice [1]; 160 mg/kg p.o.) [%]	ED50 (male Swiss albino mice [1]) [mg/kg]	Ulcerated area (male Wistar albino rats; 80 mg/kg p.o.) [mm^2]	Writhing test % Activity (male Swiss albino mice [1]; 40 mg/kg p.o.) [%]	Writhing test % Activity (male Swiss albino mice [1]; 80 mg/kg p.o.) [%]	Writhing test % Activity (male Swiss albino mice [1]; 160 mg/kg p.o.) [%]	Writhing test ED50 (male Swiss albino mice [1])	Ulcerated area (male Wistar albino rats; 160 mg/kg p.o.) [mm^2]	also measured
O=C(O)Cc1ccccc1Nc1c(Cl)cccc1Cl [Diclofenac-sodium, diclofenac in form of its sodium salt, reference compound]	19.8	54.9	84.1	75.1	13.7						Ulcerated area (male Wistar albino rats; 40 mg/kg p.o.): 3.81 mm^2
CC(C)Cc1ccc(C(C)C(=O)O)cc1 (stereo not shown) [Ibuprofen, reference compound]	19.8	47.6	62.9	103							
CC(C)Cc1ccc(C(C)C(=O)O)cc1.[Na] (stereo not shown) [Ibuprofen-sodium, ibuprofen-sodium, reference compound]					5.29						
COc1ccc2cc([C@H](C)C(=O)O)ccc2c1 [Naproxen, reference compound]	32	51.2	78.5	71.2	10.5						inhibition at 40 mg/kg (male Swiss albino mice [2]; [3]): 31.5%; inhibition at 40 mg/kg (male Swiss albino mice [2]; [4]): 18%
CN(C)CCO[C@H](c1ccccc1)c1ccnn1C.O=C(O)Cc1ccccc1Nc1c(Cl)cccc1Cl [R-(+)-Cizolirtine diclofenacate, R-(+)-5-[α-[2-(Dimethylamino)ethoxy]benzyl]-1-methyl-1H-pyrazole diclofenacate]					2.75	14.7	57.3	72.1	84	7.24	
CC(C)Cc1ccc([C@H](C)C(=O)O)cc1.CN(C)CCO[C@H](c1ccccc1)c1ccnn1C [R-(+)-Cizolirtine ibuprofenate, R-(+)-5-[α-[2-(Dimethylamino)ethoxy]benzyl]-1-methyl-1H-pyrazole S-(+)-ibuprofenate]						15.9	45	80.9	84.8	3.21	
CN(C)CCO[C@H](c1ccccc1)c1ccnn1C.COc1ccc2cc([C@H](C)C(=O)O)ccc2c1 [R-(+)-Cizolirtine naproxenate, R-(+)-5-[α-[2-(Dimethylamino)ethoxy]benzyl]-1-methyl-1H-pyrazole naproxenate]						32.0	52.0	77.3	71.29	6.86	Formaline test % Activity Phase I (male Swiss albino mice [2]; 40 mg/kg i.p., acute phase 0-5 minutes after formaline, inhibition of licking/biting time): 49%; Formaline test % Activity Phase II (male Swiss albino mice [2]; 40 mg/kg i.p., chronic phase 15-30 minutes after formaline, inhibition of licking/biting time): 36%
CN(C)CCO[C@H](c1ccccc1)c1ccnn1C [R-(+)-Cizolirtine, R-(+)5-[α-[2-(Dimethylamino)ethoxy]benzyl]-1-methyl-1H-pyrazole]	29	49.7	72.5	79		28.9			79		inhibition at 40 mg/kg (male Swiss albino mice [2]; [3]): 83%; inhibition at 40 mg/kg (male Swiss albino mice [2]; [4]): 68.5%
CN(C)CCO[C@@H](c1ccccc1)c1ccnn1C.COc1ccc2cc([C@H](C)C(=O)O)ccc2c1 [S-(−)-Cizolirtine naproxenate, S-(−)-5-[α-[2-(Dimethylamino)ethoxy]benzyl]-1-methyl-1H-pyrazole naproxenate]						26.7	52.4	68.5	82.15		
CN(C)CCO[C@@H](c1ccccc1)c1ccnn1C [S-(−)-Cizolirtine, S-(−)-5-[α-[2-(Dimethylamino)ethoxy]benzyl]-1-methyl-1H-pyrazole]						29.0	49.7	59.7	95.26		
